# Test results from patent US11155539B2, “4-pyridinylmethyl-morpholine derivatives and the use thereof as medicament” (Boehringer Ingelheim International GmbH, priority 2018, dated 2021).
# Tests used:
# Nav1.6 = Nav1.6 (Homo sapiens, UniProt Q9UQD0); assay: Nav 1.6 inhibition, IonWorks Quattro electrophysiology; format: cell-based; details: for inhibition at 1 µM / inhibition at 5 µM: normalized to vehicle control (0%) and maximal inhibition control (100%)
# Summary of the method: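 Human Nav1.6 currents recorded on IonWorks Quattro with amphotericin B (200 μg/ml) perforated access; compounds at final 1 and 5 μM in 0.3% DMSO. Cells held at −120 mV, prepulsed to 0 mV for 2500 ms, 10 ms recovery at −120 mV, then 20 ms test pulse to 0 mV; values are normalized percentage inhibition.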
# [1] = Metabolic stability in pooled human liver microsomes; format: in vitro ADME; details: pH 7.6, 1 μM compound, 37° C., NADPH, read-out: Half-life - t½ human liver microsomes
# From the text: Stability in human liver microsomes refers to the susceptibility of compounds to biotransformation in the context of selecting and/or designing drugs with favorable pharmacokinetic properties. The primary site of metabolism for many drugs is the liver. Human liver microsomes contain the cytochrome P450s (CYPs), and thus represent a model system for studying drug metabolism in vitro Enhanced stability in human liver microsomes is associated with several advantages, including increased bioavailability and adequate half-life, which can enable lower and less frequent dosing of patients. Thus, enhanced stability in human liver microsomes is a favorable characteristic for compounds that are to be used for drugs.
# The metabolic degradation of the test compound was assayed at 37° C. with pooled human liver microsomes. The final incubation volume of 60 μl per time point contains TRIS buffer pH 7.6 at room temperature (0.1 M), magnesium chloride (5 mM aqueous solution), microsomal protein (1 mg/mL for human) and the test compound at a final concentration of 1 μM. Following a short preincubation period at 37° C., the reactions were initiated by addition of betanicotinamide adenine dinucleotide phosphate, reduced form (NADPH, 1 mM), and terminated by transferring an aliquot into acetonitril after different time points. After centrifugation (10000 g, 5 min), an aliquot of the supernatant was assayed by HPLC-MS/MS as described above for the MDCK assay P-gp for the amount of parent compound. The half-life was determined by the slope of the semi-logarithmic plot of the concentration-time profile.
# Chain of Nav1.6 (Q9UQD0 whole entry): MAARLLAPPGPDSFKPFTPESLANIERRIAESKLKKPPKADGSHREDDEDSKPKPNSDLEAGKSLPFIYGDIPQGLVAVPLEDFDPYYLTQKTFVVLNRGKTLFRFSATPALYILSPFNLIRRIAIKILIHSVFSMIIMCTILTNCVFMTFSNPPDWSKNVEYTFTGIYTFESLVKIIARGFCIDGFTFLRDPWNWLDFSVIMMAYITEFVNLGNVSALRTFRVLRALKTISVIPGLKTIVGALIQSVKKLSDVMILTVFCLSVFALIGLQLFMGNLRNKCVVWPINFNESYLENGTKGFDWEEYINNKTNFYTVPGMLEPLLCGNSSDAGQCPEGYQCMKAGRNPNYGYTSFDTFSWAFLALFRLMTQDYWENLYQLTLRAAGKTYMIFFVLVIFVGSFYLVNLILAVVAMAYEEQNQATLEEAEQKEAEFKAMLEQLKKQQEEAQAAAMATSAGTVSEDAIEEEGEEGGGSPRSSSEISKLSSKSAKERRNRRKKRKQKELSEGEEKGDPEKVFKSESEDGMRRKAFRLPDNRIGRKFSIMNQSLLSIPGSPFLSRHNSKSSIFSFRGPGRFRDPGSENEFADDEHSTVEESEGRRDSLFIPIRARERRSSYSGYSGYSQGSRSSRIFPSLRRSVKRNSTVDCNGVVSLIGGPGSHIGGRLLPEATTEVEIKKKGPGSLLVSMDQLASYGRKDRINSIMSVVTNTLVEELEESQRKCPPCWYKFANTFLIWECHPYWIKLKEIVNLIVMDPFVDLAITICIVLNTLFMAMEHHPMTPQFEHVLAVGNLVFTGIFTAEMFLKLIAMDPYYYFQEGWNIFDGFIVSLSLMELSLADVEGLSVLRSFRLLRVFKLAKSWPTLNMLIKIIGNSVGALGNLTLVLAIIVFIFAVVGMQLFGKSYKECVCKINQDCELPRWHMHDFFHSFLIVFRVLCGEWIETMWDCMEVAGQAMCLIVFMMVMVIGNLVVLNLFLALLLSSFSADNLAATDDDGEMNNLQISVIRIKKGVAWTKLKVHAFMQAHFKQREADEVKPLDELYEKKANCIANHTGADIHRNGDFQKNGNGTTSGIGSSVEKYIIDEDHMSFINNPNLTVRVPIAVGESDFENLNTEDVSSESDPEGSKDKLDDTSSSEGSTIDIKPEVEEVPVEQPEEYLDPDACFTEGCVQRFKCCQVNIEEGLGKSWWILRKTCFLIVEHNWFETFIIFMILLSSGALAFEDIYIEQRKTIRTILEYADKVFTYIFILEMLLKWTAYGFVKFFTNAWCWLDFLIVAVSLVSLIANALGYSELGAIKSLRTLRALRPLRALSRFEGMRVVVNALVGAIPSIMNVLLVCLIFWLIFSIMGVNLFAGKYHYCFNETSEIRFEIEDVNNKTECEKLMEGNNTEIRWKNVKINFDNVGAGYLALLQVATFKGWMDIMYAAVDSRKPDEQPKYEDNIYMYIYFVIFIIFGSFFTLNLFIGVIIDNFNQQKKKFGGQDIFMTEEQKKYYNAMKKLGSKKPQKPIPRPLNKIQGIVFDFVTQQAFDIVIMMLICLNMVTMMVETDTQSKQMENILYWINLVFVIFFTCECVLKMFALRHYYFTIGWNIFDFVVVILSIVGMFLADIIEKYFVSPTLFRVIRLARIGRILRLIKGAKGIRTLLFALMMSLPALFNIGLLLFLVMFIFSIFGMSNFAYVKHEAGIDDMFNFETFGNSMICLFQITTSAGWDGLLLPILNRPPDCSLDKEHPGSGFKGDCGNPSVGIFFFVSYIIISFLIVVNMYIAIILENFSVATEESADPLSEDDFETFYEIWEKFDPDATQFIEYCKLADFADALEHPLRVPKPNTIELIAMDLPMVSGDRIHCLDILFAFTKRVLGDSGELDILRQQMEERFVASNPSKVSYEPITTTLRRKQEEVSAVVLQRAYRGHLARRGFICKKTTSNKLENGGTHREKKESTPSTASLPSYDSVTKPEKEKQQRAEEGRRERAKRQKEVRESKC
inhibition at 1 µM (Nav1.6) [%],inhibition at 5 µM (Nav1.6) [%],half-life at 1 μM [1] [h],significant inhibition of the Nav 1.6 channel (in words) (Nav1.6; at 5 μM),SMILES
7.6,6.8,> 2.17,,CNC(=O)[C@@H]1CN(Cc2ccc(Oc3ccc(F)cc3)cn2)CCO1 [Example 30]
5.2,-6.3,> 2.17,not showing any significant inhibition,CNC(=O)[C@@H]1CN(Cc2ccc(Oc3ccccc3F)nc2)CCO1 [Example 19]
22,-4.3,> 2.17,,CNC(=O)[C@@H]1CN(Cc2ccc(Oc3ccccc3Cl)nc2)CCO1 [Example 17]
1.8,3,> 2.17,,CNC(=O)[C@@H]1CN(Cc2ccc(Oc3ccc(C)cc3)nc2)CCO1 [Example 29]
